Source: patent US11939377B2, “Affinity matured CD22-specific monoclonal antibody and uses thereof” (The U.S.A., as represented by the Secretary, Department of …, priority 2018, dated 2024)

Experiments:
[1] = test system: CD22 expression on ALL and DLBCL cell lines (Nalm6, Kopn8, SEM, Pfeiffer, Toledo, PDX); test: CD22 expression on leukemia/lymphoma cells by flow cytometry after drug exposure in vitro; type: cell-based, human
Method: (§1) FIGS. 3A-3D: (FIG. 3A) Four cell lines (Nalm6, Kopn8, Pfieffer and Toldeo) were co-incubated with 1 ng/ml Bryostatin 1 for 24 hours and analyzed using flow cytometry one day after Bryostatin 1 exposure. Site density was analyzed using standardized Quantibrite-PE beads. (FIG. 3B) Cell lines were co-incubated with 1 ng/ml Bryostatin 1 for 24 hours, washed, and analyzed using flow cytometry at 1 and 7 days after Bryostatin 1 exposure. Fold change was calculated based on site density: (Cell line Bryostatin 1—Cell line DMSO)/Cell line DMSO. (FIG. 3C) NSG mice were injected with 1×10^6 GPF-positive Nalm6 leukemia cells on Day 0. Bryostatin 1 was administered at 0.8 μg/kg on Day 3. Mice were sacrificed 7 and 12 days after Bryostatin 1 injection and CD22 was evaluated by flow cytometry. (FIG. 3D) CD22-low relapse PDX cell line was cultured in vitro with 1 nmol/L Bryostatin 1 for 24 hours and measured for CD22 expression using CD22 antibody.
(§2) FIGS. 10A-10E: (FIG. 10A) Three cell lines (Toldeo, Kopn8 and Nalm6) were co-incubated with Bryostatin 1 at varying concentrations for 24 hours. At 24 hours, cells were collected for protein kinase C (PKC)-βII isoform analysis by western blot. (FIG. 10B) KOPN8 or SEM cell lines were exposed to Bryostatin 1 for 16, 24, 48 or 72 hours. RNA was extracted from cells and analyzed using RNAseq. (FIG. 10C) Immunofluorescent staining of CD22 was conducted through permeabilization followed by staining of CD22. (FIG. 10D) Four cell lines were co-incubated with various combinations of Enzastaurin (10 μM), Staurosporine (100 μM), or Bryostatin 1 (1 nM) for 24 hours. CD22 expression was assessed using flow cytometry. MFI fold change=CD22 MFI^Bryostatin1/CD22 MFI^DMSO. (FIG. 10E) Cell lines were co-incubated with 1 nM Bryostatin 1 for 24 hours and measured for CD22 expression using CD22-PE antibody. MFI fold change=CD22 MFI^Bryostatin 1/CD22 MFI^DMSO.
FIG. 11: CD22^lo or parental Nalm6 cell lines were exposed to 1 ng/ml Bryostatin 1 for 24 hours. CD22 expression was assessed using flow cytometry.
For all in vitro experiments and tumor/CAR pretreatment prior to intravenous injection, Bryostatin 1 was administered to cells at a concentration of 1 ng/mL. Dimethyl sulfoxide (DMSO) vehicle control was administered to control-treated cells at an equal volume. Prior to co-culture or intravenous injection, Bryostatin 1- and DMSO-treated cells were washed 3x in sterile PBS. For all in vivo experiments, Bryostatin 1 was diluted in PBS and administered via intraperitoneal injection at a dose of 40 μg/kg (1 μg/25 g mouse). For control-treated groups, an equal volume of DMSO was diluted in PBS and administered in the same manner
FACS analysis of cell surface CAR and protein expression was performed using an LSR II Fortessa flow cytometer (BD Biosciences). CD22-CAR was detected by incubation with 22-Fc (R&D Systems), followed by incubation with human IgG-specific PE-F(ab)2 (Thermo Fisher Scientific). The following human monoclonal antibodies were used for detection of cell surface proteins: CD22-APC, CD22-PE, CD19-Pacific Blue, CD45-PerCP/Cy5.5, CD3-APC/Cy7, PD1-PE/Cy7, LAG3-APC, TIM3-Pacific Blue, CD8-APC, CD8-PE/Cy7, CD45RA-APC, CD45RO-PE/Cy7, CCR7-Pacific Blue, CD4-Pacific Blue, CD69-APC (all from BioLegend). CD22 site density was determined using QuantiBrite-PE beads (BD Biosciences) using methods previously described (Jasper et al., Cytometry B Clin Cytom 80(2):83-90, 2011). Dead cells were identified using eFluor 506 fixable viability dye (Thermo Fisher Scientific). GFP-expressing leukemia cells were identified through the FITC channel.

CD22 = test: Immunofluorescent staining of CD22 in permeabilized leukemia cells; type: cell-based, human; settings: 24 hours after exposure, 1 nM
Method: as §2
μ-dish 35 mm, high glass bottom dishes (Ibidi Inc, Madison, WI) were coated with poly-D-lysine for 2 hours and then seeded with 5×10^5 leukemia cells, which had been pre-treated with either 1 nM Bryostatin 1 or DMSO control for 24 hours. Approximately 12 hours after seeding, cells were fixed in 4% paraformaldehyde and then permeabilized with 0.2% Triton X-100 detergent. […]

Nalm6 leukemia cells = test: CD22 expression on Nalm6 in NSG mice after a single dose of Bryostatin 1; type: in vivo; settings: single dose I.P.
Method: as §1, with “antibody. […]” for “antibody.”
FACS analysis of cell surface CAR and protein expression was performed using an LSR II Fortessa flow cytometer (BD Biosciences). CD22-CAR was detected by incubation with 22-Fc (R&D Systems), followed by incubation with human IgG-specific PE-F(ab)2 (Thermo Fisher Scientific). […] CD22 site density was determined using QuantiBrite-PE beads (BD Biosciences) using methods previously described (Jasper et al., Cytometry B Clin Cytom 80(2):83-90, 2011). […]

## CCC/C=C/C=C/C(=O)O[C@H]1/C(=C/C(=O)OC)C[C@H]2C[C@H]([C@@H](C)O)OC(=O)C[C@H](O)C[C@@H]3C[C@H](OC(C)=O)C(C)(C)[C@](O)(C[C@@H]4C/C(=C/C(=O)OC)C[C@H](/C=C/C(C)(C)[C@]1(O)O2)O4)O3 [Bryostatin 1]
[1]; 24 hours exposure, washed, analyzed at 1 and 7 days
  persistence of increased CD22 expression following removal of drug: persisted for a week
[1]; CD22^lo Nalm6, 1 ng/ml, 24 hours
  CD22 expression on CD22^lo leukemia cells following exposure: did not demonstrate an increase
[1]; KOPN8 and SEM, 1 nM, 24 hours
  CD22 expression (MFI fold change): robust upregulation
[1]; PDX cell line cultured in vitro, 1 nmol/L, 24 hours
  CD22 on CD22-low relapse patient-derived ALL xenograft: upregulated
[1]; all four cell lines (two pre-B ALL, two DLBCL), 1 ng/ml, 24 hours
  CD22 expression upon exposure: significant increase
CD22
  vacuolated CD22 compared to DMSO controls: less vacuolated CD22
Nalm6 leukemia cells; 1 week
  CD22 MFI on Nalm6 in vivo: increased
Nalm6 leukemia cells; 12 days post-drug administration
  CD22 expression on Nalm6 in vivo: return to baseline expression
